System: fungus
Excerpt: Various fertilizer quality nitrate salts have been used to test this effect, particularly potassium nitrate, ammonium nitrate, calcium nitrate, and sodium nitrate.

SMILES: O=[N+]([O-])O [nitrate ions, nitrate]
- concentration of nitrate ions in the solution found to be generally effective (at the sprinkler/mist head, plants in open ground plots, approx. 10 pounds nitrate salts per acre in approx. 1,000 gallons of water): 700 parts per million of water
- effect on germination of fungal spores and subsequent development (weak solutions, fungi on ground surface and plant surfaces, under certain conditions): fungistatic effect
